Experiments:
Rhesus PDE2A3 = Rhesus PDE2A3 (Macaca mulatta, UniProt B3VTJ2); test: PDE2 fluorescence polarization (IMAP FP) assay, rhesus PDE2A3; assay type: biochemical, rhesus macaque; conditions: Lab B, read-out: Rhesus PDE2 Ki (nM) Lab B
human PDE2A1 = human PDE2A1 (Homo sapiens (Human), UniProt O00408); test: PDE selectivity IMAP FP assay, human PDE2A1; assay type: biochemical; conditions: Human PDE2; Lab B; read-out: Human PDE2 Ki (nM) Lab B
How it was run: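 IMAP fluorescence polarization assay; PDE2 substrate 50 nM FAM-cAMP containing 1000 nM cGMP, enzyme diluted for 20% substrate conversion, in 10 mM Tris HCl pH 7.2, 10 mM MgCl2, 1 mM DTT. Reaction 60 min at room temperature, stopped with IMAP binding solution; polarization read after 1 h. Ki reported.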

Sequence of Rhesus PDE2A3 (B3VTJ2 1-941): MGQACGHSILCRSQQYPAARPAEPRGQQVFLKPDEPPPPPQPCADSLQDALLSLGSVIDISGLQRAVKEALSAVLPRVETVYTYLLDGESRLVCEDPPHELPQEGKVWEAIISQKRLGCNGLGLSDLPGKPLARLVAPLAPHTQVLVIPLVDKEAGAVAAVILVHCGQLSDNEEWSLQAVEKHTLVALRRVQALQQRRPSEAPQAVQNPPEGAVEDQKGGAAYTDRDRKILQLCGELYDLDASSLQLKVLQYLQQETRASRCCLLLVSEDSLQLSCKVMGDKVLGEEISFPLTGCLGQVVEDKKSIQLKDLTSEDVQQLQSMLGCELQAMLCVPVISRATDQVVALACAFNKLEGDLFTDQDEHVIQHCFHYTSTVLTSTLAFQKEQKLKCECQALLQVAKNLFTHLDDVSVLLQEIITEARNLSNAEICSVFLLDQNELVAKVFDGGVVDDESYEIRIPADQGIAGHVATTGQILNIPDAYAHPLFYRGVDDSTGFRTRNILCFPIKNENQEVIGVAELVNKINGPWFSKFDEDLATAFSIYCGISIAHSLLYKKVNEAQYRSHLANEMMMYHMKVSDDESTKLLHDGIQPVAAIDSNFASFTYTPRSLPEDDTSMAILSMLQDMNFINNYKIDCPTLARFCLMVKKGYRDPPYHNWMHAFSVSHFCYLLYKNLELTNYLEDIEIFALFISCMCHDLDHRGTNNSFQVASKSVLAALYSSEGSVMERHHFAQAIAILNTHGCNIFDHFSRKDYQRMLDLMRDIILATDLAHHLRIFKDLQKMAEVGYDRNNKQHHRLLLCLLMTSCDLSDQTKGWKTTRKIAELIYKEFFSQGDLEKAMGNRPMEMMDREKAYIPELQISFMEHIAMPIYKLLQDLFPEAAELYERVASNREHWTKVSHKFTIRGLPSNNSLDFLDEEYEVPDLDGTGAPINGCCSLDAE
Sequence of human PDE2A1 (O00408 other isoform, or with tags, fused parts or gaps): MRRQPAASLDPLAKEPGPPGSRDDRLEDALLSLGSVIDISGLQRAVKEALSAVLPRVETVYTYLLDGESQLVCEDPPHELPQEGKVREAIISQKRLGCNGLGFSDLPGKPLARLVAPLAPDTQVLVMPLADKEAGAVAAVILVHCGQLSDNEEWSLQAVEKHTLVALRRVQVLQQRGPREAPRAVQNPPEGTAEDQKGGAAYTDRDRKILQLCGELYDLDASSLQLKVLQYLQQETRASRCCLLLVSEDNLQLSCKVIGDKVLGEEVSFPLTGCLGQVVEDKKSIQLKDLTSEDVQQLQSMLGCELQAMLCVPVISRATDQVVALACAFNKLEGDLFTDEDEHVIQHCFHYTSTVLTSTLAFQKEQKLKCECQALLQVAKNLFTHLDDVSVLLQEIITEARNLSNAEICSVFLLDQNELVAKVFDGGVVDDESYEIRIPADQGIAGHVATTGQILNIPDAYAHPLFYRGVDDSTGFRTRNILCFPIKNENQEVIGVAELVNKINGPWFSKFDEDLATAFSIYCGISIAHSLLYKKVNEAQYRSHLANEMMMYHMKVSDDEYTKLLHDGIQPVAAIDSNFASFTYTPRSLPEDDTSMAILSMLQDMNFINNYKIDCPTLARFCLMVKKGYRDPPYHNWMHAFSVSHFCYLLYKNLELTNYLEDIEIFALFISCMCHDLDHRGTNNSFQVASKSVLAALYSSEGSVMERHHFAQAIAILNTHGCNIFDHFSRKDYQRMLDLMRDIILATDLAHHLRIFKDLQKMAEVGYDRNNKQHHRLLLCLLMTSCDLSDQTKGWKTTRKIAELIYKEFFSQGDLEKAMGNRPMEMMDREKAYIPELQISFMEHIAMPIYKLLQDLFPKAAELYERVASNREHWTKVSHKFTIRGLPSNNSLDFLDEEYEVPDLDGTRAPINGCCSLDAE

Ki (Rhesus PDE2A3) [nM] | Ki (human PDE2A1) [nM] | SMILES
0.35 | 0.29 | CC(c1ccc(CC(F)(F)F)c(F)c1)n1nc(CO)c2c(=O)[nH]c(N(C)C)nc21 (single isomer, unassigned) [Example 101, (S)- or (R)-6-(Dimethylamino)-1-(1-(3-fluoro-4-(2,2,2-trifluoroethyl)phenyl)ethyl)-3-(hydroxymethyl)-1H-pyrazolo[3,4-d]pyrimidin-4(5H)-one]
0.3 | 0.28 | CC(c1ccc(C(C)(F)F)cc1)n1nc(CO)c2c(=O)[nH]c(N(C)C)nc21 (single isomer, unassigned) [Example 103, (S)- or (R)-1-(1-(4-(1,1-Difluoroethyl)phenyl)ethyl)-6-(dimethylamino)-3-(hydroxymethyl)-1H-pyrazolo[3,4-d]pyrimidin-4(5H)-one]
6.2 | 3.6 | CC(c1ccc(C(C)(F)F)c(F)c1)n1nc(CO)c2c(=O)[nH]c(N(C)C)nc21 (single isomer, unassigned) [Example 106, (R)- or (S)-1-(1-(4-(1,1-Difluoroethyl)-3-fluorophenyl)ethyl)-6-(dimethylamino)-3-(hydroxymethyl)-1H-pyrazolo[3,4-d]pyrimidin-4(5H)-one]
0.14 | 0.12 | CCC(c1ccc(C(C)(F)F)cc1F)n1nc(CO)c2c(=O)[nH]c(N(C)C)nc21 (single isomer, unassigned) [Example 111, (S)- or (R)-1-(1-(4-(1,1-Difluoroethyl)-2-fluorophenyl)propyl)-6-(dimethylamino)-3-(hydroxymethyl)-1H-pyrazolo[3,4-d]pyrimidin-4(5H)-one]
0.71 | 0.79 | CC(C)C(c1ccc(C(F)F)c(F)c1)n1nc(CO)c2c(=O)[nH]c(N(C)C)nc21 (single isomer, unassigned) [Example 114]
0.036 | 0.024 | CC(C)C(c1ccc(C(C)(F)F)cc1F)n1nc(CO)c2c(=O)[nH]c(N(C)C)nc21 (single isomer, unassigned) [Example 119, (S)- or (R)-(1-(4-(1,1-Difluoroethyl)-2-fluorophenyl)-2-methylpropyl)-6-(dimethylamino)-3-(hydroxymethyl)-1H-pyrazolo[3,4-d]pyrimidin-4(5H)-one]
0.28 | 0.21 | CC(C)C(c1ccc(OC(F)F)cc1)n1nc(CO)c2c(=O)[nH]c(N(C)C)nc21 (single isomer, unassigned) [Example 120]
0.31 | 0.34 | CC(C)C(c1ccc(OC(F)F)cc1)n1nc(CO)c2c(=O)[nH]c(N(C)C)nc21 (single isomer, unassigned) [Example 121]
0.61 | 0.6 | CN(C)c1nc2c(c(CO)nn2C(c2ccc(OC(F)F)c(F)c2)C2CC2)c(=O)[nH]1 (single isomer, unassigned) [Example 123, (S)- or (R)-1-(Cyclopropyl(4-(difluoromethoxy)-3-fluorophenyl)methyl)-6-(dimethylamino)-3-(hydroxymethyl)-1H-pyrazolo[3,4-d]pyrimidin-4(5H)-one]
0.45 | 0.3 | CCC(c1ccc(OC(F)F)c(F)c1)n1nc(CO)c2c(=O)[nH]c(N(C)C)nc21 (single isomer, unassigned) [Example 126, (R)- or (S)-1-(1-(4-(Difluoromethoxy)-3-fluorophenyl)propyl)-6-(dimethylamino)-3-(hydroxymethyl)-1H-pyrazolo[3,4-d]pyrimidin-4(5H)-one]
1.4 | 0.81 | CCC(c1ccc(OC(F)F)c(F)c1)n1nc(CO)c2c(=O)[nH]c(N(C)C)nc21 (single isomer, unassigned) [Example 127, (S)- or (R)-1-(1-(4-(Difluoromethoxy)-3-fluorophenyl)propyl)-6-(dimethylamino)-3-(hydroxymethyl)-1H-pyrazolo[3,4-d]pyrimidin-4(5H)-one]
0.55 | 0.5 | CN(C)c1nc2c(c(CO)nn2C(c2ccc(OC(F)F)cc2)C2CC2)c(=O)[nH]1 (single isomer, unassigned) [Example 128, (R)- or (S)-1-(Cyclopropyl(4-(difluoromethoxy)phenyl)methyl)-6-(dimethylamino)-3-(hydroxymethyl)-1H-pyrazolo[3,4-d]pyrimidin-4(5H)-one]
1 | 0.55 | CN(C)c1nc2c(c(CO)nn2C(c2ccc(OC(F)F)cc2)C2CC2)c(=O)[nH]1 (single isomer, unassigned) [Example 129, (S)- or (R)-(Cyclopropyl(4-(difluoromethoxy)phenyl)methyl)-6-(dimethylamino)-3-(hydroxymethyl)-1H-pyrazolo[3,4-d]pyrimidin-4(5H)-one]

The next lines start with the molecule.

SMILES | Ki (Rhesus PDE2A3) [nM] | Ki (human PDE2A1) [nM]
CCC(c1ccc(CC(F)(F)F)c(F)c1)n1nc(CO)c2c(=O)[nH]c(N(C)C)nc21 (single isomer, unassigned) [Example 97, (S)- or (R)-6-(Dimethylamino)-1-(1-(3-fluoro-4-(2,2,2-trifluoroethyl)phenyl)propyl)-3-(hydroxymethyl)-1H-pyrazolo[3,4-d]pyrimidin-4(5H)-one] | 0.11 | 0.09
CC(c1ccc(CC(F)(F)F)c(F)c1)n1nc(CO)c2c(=O)[nH]c(N(C)C)nc21 (single isomer, unassigned) [Example 100, (R)- or (S)-6-(Dimethylamino)-1-(1-(3-fluoro-4-(2,2,2-trifluoroethyl)phenyl)ethyl)-3-(hydroxymethyl)-1H-pyrazolo[3,4-d]pyrimidin-4(5H)-one] | 1.1 | 0.88
CC(c1ccc(C(F)F)c(F)c1)n1nc(CO)c2c(=O)[nH]c(N(C)C)nc21 (single isomer, unassigned) [Example 105, (S)- or (R)-1-(1-(4-(Difluoromethyl)-3-fluorophenyl)ethyl)-6-(dimethylamino)-3-(hydroxymethyl)-1H-pyrazolo[3,4-d]pyrimidin-4(5H)-one] | 1.6 | 1.1
CC(c1ccc(C(C)(F)F)c(F)c1)n1nc(CO)c2c(=O)[nH]c(N(C)C)nc21 (single isomer, unassigned) [Example 107, (S)- or (R)-1-(1-(4-(1,1-Difluoroethyl)-3-fluorophenyl)ethyl)-6-(dimethylamino)-3-(hydroxymethyl)-1H-pyrazolo[3,4-d]pyrimidin-4(5H)-one] | 0.12 | 0.12
CC(c1ccc(C(C)(F)F)cc1F)n1nc(CO)c2c(=O)[nH]c(N(C)C)nc21 (single isomer, unassigned) [Example 108, (R)- or (S)-1-(1-(4-(1,1-DiHuoroethyl)-2-fluoroplienyl)ethyl)-6-(dimethylamino)-3-(hydroxymethyl)-1H-pyrazolo[3,4-d]pyrimidin-4(5H)-one] | 0.18 | 0.23
CCC(c1ccc(C(C)(F)F)c(F)c1)n1nc(CO)c2c(=O)[nH]c(N(C)C)nc21 (single isomer, unassigned) [Example 112, (R)- or (S)-1-(1-(4-(1,1-Difluoroethyl)-3-fluorophenyl)propyl)-6-(dimethylamino)-3-(hydroxymethyl)-1H-pyrazolo[3,4-d]pyrimidin-4(5H)-one] | 1.1 | 0.84
CCC(c1ccc(C(C)(F)F)c(F)c1)n1nc(CO)c2c(=O)[nH]c(N(C)C)nc21 (single isomer, unassigned) [Example 113] | 0.055 | 0.057
CC(C)C(c1ccc(C(C)(F)F)c(F)c1)n1nc(CO)c2c(=O)[nH]c(N(C)C)nc21 (single isomer, unassigned) [Example 116, (R)- or (S)-1-(1-(4-(1,1-Difluoroethyl)-3-fluorophenyl)-2-methylpropyl)-6-(dimethylamino)-3-(hydroxymethyl)-1H-pyrazolo[3,4-d]pyrimidin-4(5H)-one] | 0.16 | 0.13
CC(C)C(c1ccc(C(C)(F)F)c(F)c1)n1nc(CO)c2c(=O)[nH]c(N(C)C)nc21 (single isomer, unassigned) [Example 117, (R)- or (S)-1-(1-(4-(1,1-Difluoroethyl)-3-fluorophenyl)-2-methylpropyl)-6-(dimethylamino)-3-(hydroxymethyl)-1H-pyrazolo[3,4-d]pyrimidin-4(5H)-one] | 0.025 | 0.017
CC(C)C(c1ccc(C(C)(F)F)cc1F)n1nc(CO)c2c(=O)[nH]c(N(C)C)nc21 (single isomer, unassigned) [Example 118, (R)- or (S)-1-(1-(4-(1,1-Difluoroethyl)-2-fluorophenyl)-2-methylpropyl)-6-(dimethylamino)-3-(hydroxymethyl)-1H-pyrazolo[3,4-d]pyrimidin-4(5H)-one] | 0.44 | 0.42
CN(C)c1nc2c(c(CO)nn2C(c2ccc(OC(F)F)c(F)c2)C2CC2)c(=O)[nH]1 (single isomer, unassigned) [Example 122, (R)- or (S)-1-(Cyclopropyl(4-(difluoromethoxy)-3-fluorophenyl)methyl)-6-(dimethylamino)-3-(hydroxymethyl)-1H-pyrazolo[3,4-d]pyrimidin-4(5H)-one] | 0.37 | 0.3
CCC(c1ccc(OC(F)F)cc1)n1nc(CO)c2c(=O)[nH]c(N(C)C)nc21 (single isomer, unassigned) [Example 124, (R)- or (S)-1-(1-(4-(Difluoromethoxy)phenyl)propyl)-6-(dimethylamino)-3-(hydroxymethyl)-1H-pyrazolo[3,4-d]pyrimidin-4(5H)-one] | 0.7 | 0.73
CCC(c1ccc(C(F)(F)F)cc1F)n1nc(CO)c2c(=O)[nH]c(N(C)C)nc21 (single isomer, unassigned) [Example 130, (R)- or (S)-6-(Dimethylamino)-1-(1-(2-fluoro-4-(trifluoromethyl)phenyl)propyl)-3-(hydroxymethyl)-1H-pyrazolo[3,4-d]pyrimidin-4(5H)-one] | 0.12 | 0.071

From patent US10174037B2, “Dihydropyrazolopyrimidinone compounds as PDE2 inhibitors” (Merck Sharp & Dohme Corp., priority 2015, dated 2019)
